In general, Kd refers to a measure of binding affinity in units of concentration.

This note sets out measurements from article PMC4266920, “Exploring the correlation between the sequence composition of the nucleotide binding G5 loop of the FeoB GTPase domain (NFeoB) and intrinsic rate of GDP release” (Bioscience Reports, 2014).

Holding throughout (format): binding
The target in assay [1] is T1, EcNFeoB (GTPase domain of Escherichia coli FeoB) (Escherichia coli, UniProt P33650, G153A).
T1 construct: soluble N-terminal GTPase domain, residues 1-270; GST fusion (pGEX-4T-1) in E. coli BL21(DE3), GST removed by thrombin, size exclusion; an alternate S150A-TEV construct (TEV-cleaved) was also made
T1 sequence (P33650 1-270 G153A): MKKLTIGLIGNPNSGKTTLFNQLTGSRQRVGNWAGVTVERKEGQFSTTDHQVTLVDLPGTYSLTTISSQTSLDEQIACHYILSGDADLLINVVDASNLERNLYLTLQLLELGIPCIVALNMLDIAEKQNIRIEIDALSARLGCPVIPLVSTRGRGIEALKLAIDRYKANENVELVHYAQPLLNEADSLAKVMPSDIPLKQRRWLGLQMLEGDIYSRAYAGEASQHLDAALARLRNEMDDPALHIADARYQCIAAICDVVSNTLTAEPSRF
The experiment in a line: isothermal titration calorimetry, one-site model. The settings on record: read-out: Kd^** (μM) GDP. An excerpt:
(§1) isothermal titration calorimetry, one-site model on EcNFeoB (GTPase domain of Escherichia coli FeoB)

Assay [2] concerns the target T2, EcNFeoB (GTPase domain of Escherichia coli FeoB) (Escherichia coli, UniProt P33650, S150A).
T2 construct: soluble N-terminal GTPase domain, residues 1-270; GST fusion (pGEX-4T-1) in E. coli BL21(DE3), GST removed by thrombin, size exclusion; an alternate S150A-TEV construct (TEV-cleaved) was also made
T2 sequence (P33650 1-270 S150A): T1 sequence (P33650 1-270 G153A)
The experiment in a line: isothermal titration calorimetry, one-site model. Conditions: read-out: Kd^** (μM) GDP.
Source text: as §1
(In ITC the heat of successive injections is recorded.)

The target of assay [3] is T3, EcNFeoB (GTPase domain of Escherichia coli FeoB) (Escherichia coli, UniProt P33650, T151A).
T3 construct: soluble N-terminal GTPase domain, residues 1-270; GST fusion (pGEX-4T-1) in E. coli BL21(DE3), GST removed by thrombin, size exclusion; an alternate S150A-TEV construct (TEV-cleaved) was also made
T3 sequence (P33650 1-270 T151A): T1 sequence (P33650 1-270 G153A)
The experiment in a line: isothermal titration calorimetry, one-site model. Conditions: read-out: Kd^** (μM) GDP.
Source text: as §1

For assay [4], the target named is T4, EcNFeoB (GTPase domain of Escherichia coli FeoB) (Escherichia coli, UniProt P33650, R154A).
T4 construct: soluble N-terminal GTPase domain, residues 1-270; GST fusion (pGEX-4T-1) in E. coli BL21(DE3), GST removed by thrombin, size exclusion; an alternate S150A-TEV construct (TEV-cleaved) was also made
T4 sequence (P33650 1-270 R154A): T1 sequence (P33650 1-270 G153A)
Nature of the assay: isothermal titration calorimetry, one-site model. The settings on record: read-out: Kd^** (μM) GDP.
Source text: as §1

The target of assay [5] is T5, EcNFeoB (GTPase domain of Escherichia coli FeoB) (Escherichia coli, UniProt P33650, R152A).
T5 construct: soluble N-terminal GTPase domain, residues 1-270; GST fusion (pGEX-4T-1) in E. coli BL21(DE3), GST removed by thrombin, size exclusion; an alternate S150A-TEV construct (TEV-cleaved) was also made
T5 sequence (P33650 1-270 R152A): T1 sequence (P33650 1-270 G153A)
The experiment in a line: isothermal titration calorimetry, one-site model. Conditions: read-out: Kd^** (μM) GDP.
Source text: as §1

In assay [6] the target is T1, EcNFeoB (GTPase domain of Escherichia coli FeoB). Nature of the assay: stopped-flow fluorescence, koff/kon from kobs versus protein concentration. The settings on record: 20 mM Tris pH 8.0, 100 mM NaCl, 100 mM MgCl2, 20 °C; labelled compound (mant-GMPPNP; table heading prints GMPPNP). The text has this:
(§2) stopped-flow fluorescence, koff/kon from kobs versus protein concentration on EcNFeoB (GTPase domain of Escherichia coli FeoB)

The target in assay [7] is T3, EcNFeoB (GTPase domain of Escherichia coli FeoB). The description is as above. The settings on record: 20 mM Tris pH 8.0, 100 mM NaCl, 100 mM MgCl2, 20 °C; labelled compound (mant-GMPPNP; table heading prints GMPPNP).
Source text: as §2

Assay [8] has as its target T4, EcNFeoB (GTPase domain of Escherichia coli FeoB). The assay is described as above. The settings on record: 20 mM Tris pH 8.0, 100 mM NaCl, 100 mM MgCl2, 20 °C; labelled compound (mant-GMPPNP; table heading prints GMPPNP).
Source text: as §2

Assay [9] deals with T5, EcNFeoB (GTPase domain of Escherichia coli FeoB). The description is as above. The settings on record: 20 mM Tris pH 8.0, 100 mM NaCl, 100 mM MgCl2, 20 °C; labelled compound (mant-GMPPNP; table heading prints GMPPNP).
Source text: as §2

For `Nc1nc2c(ncn2[C@@H]2O[C@H](COP(=O)(O)OP(=O)(O)O)[C@@H](O)[C@H]2O)c(=O)[nH]1` [GDP], the Kd in [1] turned out to be 11 ± 2 µM; in assay [2] it was 2 ± 0.3 µM; in assay [3], 33 ± 4 µM; in assay [4] it was 9 ± 2 µM; in [5], 8 ± 1 µM.

Turning to mant-GMPPNP, the Kd in assay [6] came out at 17 µM; in assay [7], 27 µM; in [8], 43 µM; in assay [9] it was 23 µM.
